Read-outs that look alike come from different tables or passages of the source.
Experiments:
MV-4-11 cells = assay: AML cell viability, CellTiter-Glo, MV-4-11 cells; assay type: cell-based; conditions: Homo sapiens, read-out: Cell viability classification
Experimental: MV4-11 cells were obtained from ATCC and grown in IMDM supplemented with 10% FBS. The cells were maintained at 37° C. under 5% CO2. […] The luminescence was normalized to that of DMSO-treated samples. IC50 values were obtained using three-parameter non-linear regressions using Prism (GraphPad). […] Cell viability was measured using the CellTiter-Glo reagent after 44 hours of treatment. […] MV4-11 cells were obtained from ATCC and grown in IMDM supplemented with 10% FBS. The cells were maintained at 37° C. under 5% CO2. […] Cell viability was measured using the CellTiter-Glo reagent after 44 hours of treatment.

GSPT1 [1] = molecular target: T1, GSPT1 (Homo sapiens, UniProt P15170+Q96SW2); assay: GSPT1 degradation, Western Blot, MV-4-11 cells, 0.1 μM, 4 hours; assay type: cell-based; conditions: MV4-11, % reduction of GSPT1 compared to DMSO, normalized to GAPDH, read-out: GSPT1 degradation classification
Experimental: Compounds of the present disclosure was added to cells (final DMSO concentration of 0.1%) and incubated for 4 hours. GSPT1 levels were determined in MV-4-11 cells using Western Blot analysis. […] Protein levels were normalized to GAPDH levels.
The efficacy of GSPT1 degradation of a part of compounds of the present disclosure was determined by treating MV-4-11 cells at 0.1 μM (final DMSO concentration of 0.1%) for 4 hours. GSPT1 levels were determined using Western Blot and normalized to GAPDH levels.

GSPT1 [2] = molecular target: T1, GSPT1; assay: cell-based; conditions: read-out: GSPT1 degradation classification
[3] = MV4-11, TABLE 2, MV-4-11 cells assumed, CellTiter-Glo, 44 hours
[4] = MV4-11, MV-4-11 cells, CellTiter-Glo, 44 hours of treatment, TABLE 1
[5] = MV4-11, MV-4-11 cells, 1 μM, 6 hours, Western Blot, % reduction of GSPT1 compared to DMSO, normalized to GAPDH

T1 sequence (P15170 whole entry): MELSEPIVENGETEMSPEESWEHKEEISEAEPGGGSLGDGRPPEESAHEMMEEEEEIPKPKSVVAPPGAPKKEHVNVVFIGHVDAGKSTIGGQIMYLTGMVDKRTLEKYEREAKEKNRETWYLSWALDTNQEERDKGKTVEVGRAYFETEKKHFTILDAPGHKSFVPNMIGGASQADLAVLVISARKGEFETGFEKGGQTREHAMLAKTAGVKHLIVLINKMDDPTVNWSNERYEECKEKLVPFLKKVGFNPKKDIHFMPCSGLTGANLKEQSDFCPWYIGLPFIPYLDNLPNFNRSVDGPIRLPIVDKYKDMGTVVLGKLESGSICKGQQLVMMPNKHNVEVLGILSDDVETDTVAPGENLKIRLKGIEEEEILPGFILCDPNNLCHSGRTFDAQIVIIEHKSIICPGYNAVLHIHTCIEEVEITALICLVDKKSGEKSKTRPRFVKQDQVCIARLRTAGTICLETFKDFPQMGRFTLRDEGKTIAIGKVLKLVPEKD
T1 sequence (Q96SW2 whole entry): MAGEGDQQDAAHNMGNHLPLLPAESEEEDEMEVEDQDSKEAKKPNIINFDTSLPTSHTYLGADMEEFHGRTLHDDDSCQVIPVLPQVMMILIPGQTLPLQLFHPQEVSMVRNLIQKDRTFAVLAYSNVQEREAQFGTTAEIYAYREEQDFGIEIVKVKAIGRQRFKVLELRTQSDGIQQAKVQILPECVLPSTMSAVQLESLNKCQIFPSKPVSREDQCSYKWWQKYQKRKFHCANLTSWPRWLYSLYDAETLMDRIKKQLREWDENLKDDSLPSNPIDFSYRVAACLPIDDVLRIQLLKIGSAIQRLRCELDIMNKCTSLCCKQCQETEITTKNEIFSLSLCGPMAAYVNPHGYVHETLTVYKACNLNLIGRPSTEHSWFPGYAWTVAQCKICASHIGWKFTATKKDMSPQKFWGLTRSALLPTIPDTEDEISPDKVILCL
T1 sequence (Q16531 whole entry partner): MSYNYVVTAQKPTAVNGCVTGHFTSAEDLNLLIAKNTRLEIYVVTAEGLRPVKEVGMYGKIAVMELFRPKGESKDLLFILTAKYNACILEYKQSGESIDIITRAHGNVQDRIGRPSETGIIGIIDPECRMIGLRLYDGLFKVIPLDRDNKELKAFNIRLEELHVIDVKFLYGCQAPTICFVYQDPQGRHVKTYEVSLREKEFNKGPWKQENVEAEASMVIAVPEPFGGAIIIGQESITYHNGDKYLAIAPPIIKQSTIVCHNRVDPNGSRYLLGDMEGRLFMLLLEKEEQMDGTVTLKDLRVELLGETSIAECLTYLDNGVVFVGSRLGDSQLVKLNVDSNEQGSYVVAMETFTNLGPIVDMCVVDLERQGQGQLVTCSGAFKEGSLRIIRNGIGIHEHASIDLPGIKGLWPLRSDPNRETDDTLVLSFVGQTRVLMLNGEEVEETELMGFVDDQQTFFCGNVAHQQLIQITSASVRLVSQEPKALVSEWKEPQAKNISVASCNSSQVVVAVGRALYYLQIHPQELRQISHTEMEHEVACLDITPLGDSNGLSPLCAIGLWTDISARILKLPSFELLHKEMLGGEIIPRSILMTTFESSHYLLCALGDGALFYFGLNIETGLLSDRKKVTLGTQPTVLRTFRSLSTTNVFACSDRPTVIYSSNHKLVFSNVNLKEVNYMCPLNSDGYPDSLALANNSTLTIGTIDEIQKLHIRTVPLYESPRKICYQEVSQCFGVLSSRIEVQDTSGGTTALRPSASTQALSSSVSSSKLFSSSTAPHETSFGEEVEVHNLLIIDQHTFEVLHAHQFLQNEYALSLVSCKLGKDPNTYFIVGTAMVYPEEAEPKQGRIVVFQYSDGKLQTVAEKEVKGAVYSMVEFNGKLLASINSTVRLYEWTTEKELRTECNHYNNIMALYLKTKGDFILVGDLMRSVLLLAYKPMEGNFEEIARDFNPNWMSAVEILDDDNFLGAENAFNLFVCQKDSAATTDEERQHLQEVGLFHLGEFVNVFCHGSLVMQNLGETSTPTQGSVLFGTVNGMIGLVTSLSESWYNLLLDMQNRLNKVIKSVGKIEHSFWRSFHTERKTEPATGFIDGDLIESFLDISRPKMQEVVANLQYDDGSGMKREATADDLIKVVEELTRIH

Row | SMILES | IC50 (MV-4-11 cells; [3]) [nM] | inhibition at 0.1 µM (GSPT1 [1]) [%] | IC50 (MV-4-11 cells; [4]) [nM] | inhibition at 1 µM (GSPT1 [2]; MV4-11, 6 h) [%] | also measured
1 | O=C1CCC(N2Cc3cc(C(=O)Nc4csc5ccc(F)cc45)ccc3C2=O)C(=O)N1 (stereo not drawn) [Example 68, 2-(2,6-dioxopiperidin-3-yl)-N-(5-fluorobenzo[b]thiophen-3-yl)-1-oxoisoindoline-5-carboxamide] | < 100 | 50 to 75 | – | – | –
2 | O=C1CCC(N2Cc3cc(C(=O)Nc4csc5cc(F)ccc45)ccc3C2=O)C(=O)N1 (stereo not drawn) [Example 69, 2-(2,6-dioxopiperidin-3-yl)-N-(6-fluorobenzo[b]thiophen-3-yl)-1-oxoisoindoline-5-carboxamide] | < 100 | 50 to 75 | – | – | –
3 | O=C1CCC(N2Cc3cc(C(=O)N4CCc5c4ccc(Cl)c5F)ccc3C2=O)C(=O)N1 (stereo not drawn) [Example 66, 3-(5-(5-chloro-4-fluoroindoline-1-carbonyl)-1-oxoisoindolin-2-yl)piperidine-2,6-dione] | < 100 | < 50 | – | – | –
4 | O=C1CCC(N2Cc3cc(C(=O)Nc4csc5cccc(F)c45)ccc3C2=O)C(=O)N1 (stereo not drawn) [Example 67, 2-(2,6-dioxopiperidin-3-yl)-N-(4-fluorobenzo[b]thiophen-3-yl)-1-oxoisoindoline-5-carboxamide] | < 100 | 50 to 75 | – | – | –
5 | O=C1CCC(N2Cc3cc(C(=O)NC45CC(F)(C4)C5)ccc3C2=O)C(=O)N1 (stereo not drawn) [Example 71, 2-(2,6-dioxopiperidin-3-yl)-N-(3-fluorobicyclo[1.1.1]pentan-1-yl)-1-oxoisoindoline-5-carboxamide] | > 1000 | < 50 | – | – | –
6 | O=C1CCC(N2Cc3cc(C(=O)N4CCc5cc(C(F)(F)F)ccc54)ccc3C2=O)C(=O)N1 (stereo not drawn) [Example 78, 3-(1-oxo-5-(5-(trifluoromethyl)indoline-1-carbonyl)isoindolin-2-yl)piperidine-2,6-dione] | – | – | 100 to 1000 | 50 to 75 | –
7 | O=C1CCC(N2Cc3cc(C(=O)N4CCc5cc(Cl)cc(F)c54)ccc3C2=O)C(=O)N1 (stereo not drawn) [Example 56, 3-(5-(5-chloro-7-fluoroindoline-1-carbonyl)-1-oxoisoindolin-2-yl)piperidine-2,6-dione] | – | – | 100 to 1000 | – | inhibition at 1 µM (GSPT1 [2]; [5]): 50 to 75%
8 | O=C1CCC(N2Cc3cc(C(=O)N4Cc5ccncc5C4)ccc3C2=O)C(=O)N1 (stereo not drawn) [Example 31, 3-(5-(2,3-dihydro-1H-pyrrolo[3,4-c]pyridine-2-carbonyl)-1-oxoisoindolin-2-yl)piperidine-2,6-dione] | – | – | 100 to 1000 | – | inhibition at 1 µM (GSPT1 [2]; [5]): 50 to 75%
9 | O=C1CCC(N2Cc3cc(C(=O)N4CCc5ncccc54)ccc3C2=O)C(=O)N1 (stereo not drawn) [Example 28, 3-(5-(2,3-dihydro-1H-pyrrolo[3,2-b]pyridine-1-carbonyl)-1-oxoisoindolin-2-yl)piperidine-2,6-dione] | – | – | < 100 | – | inhibition at 1 µM (GSPT1 [2]; [5]): 50 to 75%
10 | O=C1CCC(N2Cc3cc(C(=O)N4CCc5c(F)ccc(F)c54)ccc3C2=O)C(=O)N1 (stereo not drawn) [Example 63, 3-(5-(4,7-difluoroindoline-1-carbonyl)-1-oxoisoindolin-2-yl)piperidine-2,6-dione] | 100 to 1000 | < 50 | – | – | –
11 | O=C1CCC(N2Cc3cc(C(=O)Nc4csc5c(F)cccc45)ccc3C2=O)C(=O)N1 (stereo not drawn) [Example 70, 2-(2,6-dioxopiperidin-3-yl)-N-(7-fluorobenzo[b]thiophen-3-yl)-1-oxoisoindoline-5-carboxamide] | < 100 | < 50 | – | – | –
12 | COc1cccc2c1N(C(=O)c1ccc3c(c1)CN(C1CCC(=O)NC1=O)C3=O)CC2 (stereo not drawn) [Example 85, 3-(5-(7-methoxyindoline-1-carbonyl)-1-oxoisoindolin-2-yl)piperidine-2,6-dione] | – | – | 100 to 1000 | – | inhibition at 1 µM (GSPT1 [2]; [5]): < 50%
13 | O=C1CCC(N2Cc3cc(C(=O)N4CCc5c4ccc(F)c5F)ccc3C2=O)C(=O)N1 (stereo not drawn) [Example 65, 3-(5-(4,5-difluoroindoline-1-carbonyl)-1-oxoisoindolin-2-yl)piperidine-2,6-dione] | < 100 | < 50 | – | – | –
14 | O=C1CCC(N2Cc3cc(C(=O)N4Cc5ccc(C(F)(F)F)cc5C4)ccc3C2=O)C(=O)N1 (stereo not drawn) [Example 22, 3-(1-oxo-5-(5-(trifluoromethyl)isoindoline-2-carbonyl)isoindolin-2-yl)piperidine-2,6-dione] | – | – | < 100 | – | inhibition at 1 µM (GSPT1 [2]; [5]): > 75%
15 | O=C1CCC(N2Cc3cc(C(=O)N4CCc5ccc(F)cc54)ccc3C2=O)C(=O)N1 (stereo not drawn) [Example 32, 3-(5-(6-fluoroindoline-1-carbonyl)-1-oxoisoindolin-2-yl)piperidine-2,6-dione] | – | – | < 100 | > 75 | –
16 | O=C1CCC(N2Cc3cc(C(=O)N4CCc5cc(F)ccc54)ccc3C2=O)C(=O)N1 (stereo not drawn) [Example 75, 3-(5-(5-fluoroindoline-1-carbonyl)-1-oxoisoindolin-2-yl)piperidine-2,6-dione] | – | – | < 100 | > 75 | –
17 | O=C1CCC(N2Cc3cc(C(=O)NC45CCC(F)(CC4)CC5)ccc3C2=O)C(=O)N1 (stereo not drawn) [Example 72, 2-(2,6-dioxopiperidin-3-yl)-N-(4-fluorobicyclo[2.2.2]octan-1-yl)-1-oxoisoindoline-5-carboxamide] | 100 to 1000 | 50 to 75 | – | – | –
18 | O=C1CCC(N2Cc3cc(C(=O)Nc4csc5ccncc45)ccc3C2=O)C(=O)N1 (stereo not drawn) [Example 60] | – | – | 100 to 1000 | – | inhibition at 1 µM (GSPT1 [2]; [5]): 50 to 75%
19 | O=C1CCC(N2Cc3cc(C(=O)N4CCc5cc(OC(F)(F)F)ccc54)ccc3C2=O)C(=O)N1 (stereo not drawn) [Example 80, 3-(1-oxo-5-(5-(trifluoromethoxy)indoline-1-carbonyl)isoindolin-2-yl)piperidine-2,6-dione] | – | – | 100 to 1000 | 50 to 75 | –
20 | O=C1CCC(N2Cc3cc(C(=O)N4CCc5c(F)cccc54)ccc3C2=O)C(=O)N1 (stereo not drawn) [Example 74, 3-(5-(4-fluoroindoline-1-carbonyl)-1-oxoisoindolin-2-yl)piperidine-2,6-dione] | – | – | < 100 | > 75 | –
21 | COc1ccc2c(c1)CCN2C(=O)c1ccc2c(c1)CN(C1CCC(=O)NC1=O)C2=O (stereo not drawn) [Example 83, 3-(5-(5-methoxyindoline-1-carbonyl)-1-oxoisoindolin-2-yl)piperidine-2,6-dione] | – | – | < 100 | < 50 | –
22 | O=C1CCC(N2Cc3cc(C(=O)N4CCc5ccc(OC(F)(F)F)cc54)ccc3C2=O)C(=O)N1 (stereo not drawn) [Example 81, 3-(1-oxo-5-(6-(trifluoromethoxy)indoline-1-carbonyl)isoindolin-2-yl)piperidine-2,6-dione] | – | – | > 1000 | < 50 | –
23 | O=C1CCC(N2Cc3cc(C(=O)N4CCc5cccc(F)c54)ccc3C2=O)C(=O)N1 (stereo not drawn) [Example 76, 3-(5-(7-fluoroindoline-1-carbonyl)-1-oxoisoindolin-2-yl)piperidine-2,6-dione] | – | – | 100 to 1000 | < 50 | –
24 | O=C1CCC(N2Cc3cc(C(=O)N[C@H]4CCc5ccccc54)ccc3C2=O)C(=O)N1 (stereo partly drawn) [Example 1, N—((S)-2,3-dihydro-1H-inden-1-yl)-2-(2,6-dioxopiperidin-3-yl)-1-oxoisoindoline-5-carboxamide] | – | – | – | < 50 | IC50 (MV-4-11 cells; MV4-11, 44 h): < 100 nM
